Data from US20050221337A1, “Microarrays and microspheres comprising oligosaccharides, complex carbohydrates or glycoproteins” (priority 2003, published 2005).

T1: cyanovirin-N (CVN) (Nostoc ellipsosporum, UniProt P81180)
T1 sequence (P81180 1-101): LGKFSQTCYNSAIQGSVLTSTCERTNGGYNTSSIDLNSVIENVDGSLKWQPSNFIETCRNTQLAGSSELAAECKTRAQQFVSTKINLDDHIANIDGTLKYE

T2: CVN (Nostoc ellipsosporum, UniProt P81180)
T2 sequence (P81180 1-101): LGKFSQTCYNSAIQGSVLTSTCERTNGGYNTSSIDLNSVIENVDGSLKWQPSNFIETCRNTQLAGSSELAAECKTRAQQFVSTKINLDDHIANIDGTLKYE


Columns and labels:
cyanovirin-N (CVN) = biological target: T1, cyanovirin-N (CVN); assay: High-mannose oligosaccharide microarray incubated with BODIPY-labeled CVN, fluorescence scan; format: binding, Nostoc elliposporum; conditions: for BODIPY-labeled CVN fluorescence (binding) on immobilized saccharide spots: BODIPY-CVN 25 μg mL-1, 1 hour, room temperature, BSA coated slide; for CVN spot fluorescence intensity relative to nonamannoside (normalized to background): higher printed concentrations 1 mM-0.5 mM (FIG. 9)
Experimental: Using the aforementioned thiol terminated linker, a series of high-mannose oligosaccharides were prepared (Scheme 6). Arrays were printed on a BSA coated slide, as above, varying the concentration of printed oligosaccharide, and blocked with 3-mercaptoproprionic acid.
It was of interest to establish whether the microarray platform may serve to probe relative affinities of CVN for the different high-mannose structures. A microarray containing the four oligosaccharide structures was prepared with carbohydrate concentrations ranging from 0.008 mM to 2 mM. […] At lower dilutions, however, this trend is reversed. This discrepancy from the isocalorimetry data can be explained by the density of covalently immobilized saccharide at saturating concentrations. We hypothesize that the size of the nonasaccharide, compared to the other structures immobilized, might sterically occlude reactive sites leading to decreased amounts of immobilized structure. As previously observed, two distinct CVN binding domains can each interact with a single α1,2-linked linear trimannoside. We reason that a higher surface concentrations of 3 permits this multivalent interaction to take place.
Functionalization of slides: SuperAldehyde slides (TeleChem International) were immersed in 50 mL phosphate buffered saline (PBS) containing 1% bovine serum albumin (BSA; w/v) and incubated overnight at room temperature. The slides were rinsed twice with distilled H2O (100 mL), twice with 95% ethanol (50 mL) and then dried under a stream of dry Ar. Thereafter the slides were immersed in 45 mL of anhydrous DMF (Aldrich) containing 65 mg succinimidyl-4-(Nmaleimidomethyl)cyclohexane-1-carboxyiate. (Pierce Chemical) and 100 mM N,N-Diisopropylethylamine (Aldrich). The slides were incubated in this solution for 24 hours at room temperature, washed 4 times with 95% ethanol (50 mL) and then stored in a vacuum dessicator until used for microarray fabrication.
Microarray fabrication: Thiol functionalized carbohydrates were incubated 1 hr at room temperature with 1 equivalent tris-(carboxyethyl)phosphine hydrochloride (TCEP) in 1×PBS, and printed on the maleimide derivitized glass slides using a MicroGrid TAS array printer. Prints were performed at 30% humidity using either a 16-pin or 32-pin format, with a spot size of 120 μm and a distance of 300 μm between the centers of adjacent spots. Thereafter, the slides were stored in a humid chamber at room temperature for 12 hours, washed 2 times with distilled H2O, and then incubated for 1 hour in 1 mM 3-mercaptopropionic acid in PBS (50 mL) to quench all remaining maleimide groups. The slides were washed three times with distilled H2O (50 mL), two times with 95% ethanol (50 mL) and then stored in a vacuum dessicator until used for binding experiments.
Detection of protein-carbohydrate interactions: In experiments involving FITC labeled ConA (Sigma), the lectin was used at 25 μg mL^−1 in 10 mM HEPES-BSA buffer (pH 7.5, 1 mM CaCl2, 1 mM MnCl2, 100 mM NaCl, 1% (w/v) BSA). In experiments involving BODIPY-labeled CVN, the CVN was used at 25 μg mL-1 in 10 mM PBS containing 1% BSA. For all incubations, 0.55 mL of protein solution was applied to the slide using a PC500 CoverWell incubation chamber (Grace BioLabs). Following a 1 hour incubation at room temperature, the slides were washed three times with 50 mL of the same buffer used in the incubation, twice with 50 mL distilled H2O and then centrifuged at 200 g for 5 minutes to ensure complete dryness. To visualize fluorescence, the slides were scanned using an ArrayWoRx fluorescence slide scanner (Applied Precision).

cyanovirin N (CV-N) = cyanovirin N (CV-N) (Nostoc ellipsosporum, UniProt P81180); assay: Fiber optic microsphere array incubated with BODIPY-labeled CV-N; format: binding; conditions: CV-N 50 μg mL^−1, five minutes; excitation 488 nm
Text: Five synthetic carbohydrates (1,3-6) were immobilized on microspheres carrying a unique internal code for each structure. A small aliquot of each of the five dispersions was mixed together and used to microsphere array.
At five minutes the CV-N solution was removed and replaced with a fresh buffer solution. BODIPY excitation wavelength (488 nm) was passed through the optical fiber and BODIPY emission wavelengths were collected on the CCD camera. Three of the five structures (3,5,6) present were bound by CV-N in accordance with isothermal microcalorimetry studies P. H. Seeberger et al. Chemistry and Biology 2002, 9, 1109.

CVN = biological target: T2, CVN; conditions: recent isothermocalorimetry and NMR study; read-out: Kd of CVN binding; cited from earlier work
Concanavalin A (ConA) [1] = biological target: T3, Concanavalin A (ConA) (Canavalia ensiformis, UniProt P02866); assay: Carbohydrate microarray incubated with FITC-labeled ConA, fluorescence scan; format: binding; conditions: FITC-ConA 25 μg mL^−1, 1 hour, room temperature; 120 μm spots on maleimide-BSA slide
Text: Protein-carbohydrate interactions were examined using the mannose/glucose specific lectin Concanavalin A (ConA). Microarrays were constructed through the maleimide derivatization of BSA coated glass slides to create a thiol-reactive surface (FIG. 1). Thiol derivatized mannose and galactose were printed as 120 μm spots using a microarray printing robot. The remaining maleimide groups were subsequently quenched with a solution of 3-mercaptopropionic acid to render the slides unreactive to cysteine containing proteins. The carbohydrate microarrays were incubated with a solution of FITC-labeled ConA. The arrays were thoroughly rinsed with buffer, dried by centrifugation and scanned with a fluorescence slide scanner. […] Utilizing proteins conjugated to fluorophores of non-overlapping excitation and-emission spectra enabled facile two-color detection. […] See Bidlingmaier, S.; Synder, M. Chemistry and Biology 2002, 9, 400. […]
Detection of protein-carbohydrate interactions: In experiments involving FITC labeled ConA (Sigma), the lectin was used at 25 μg mL^−1 in 10 mM HEPES-BSA buffer (pH 7.5, 1 mM CaCl2, 1 mM MnCl2, 100 mM NaCl, 1% (w/v) BSA). […] To visualize fluorescence, the slides were scanned using an ArrayWoRx fluorescence slide scanner (Applied Precision).

Concanavalin A (ConA) [2] = biological target: T3, Concanavalin A (ConA)
HIV strains = conditions: natural and recombinant forms of CVN; cited from earlier work
host cells = conditions: natural and recombinant forms of CVN; cited from earlier work

| Molecule | BODIPY-labeled CVN fluorescence (binding) on immobilized saccharide spots (cyanovirin-N (CVN)) | CVN spot fluorescence intensity relative to nonamannoside (normalized to background) (cyanovirin-N (CVN)) | BODIPY-labeled CV-N binding to oligosaccharide-bearing beads (cyanovirin N (CV-N)) | Kd (CVN) [nM] | also measured |
| --- | --- | --- | --- | --- | --- |
| hexamannoside [compound 5] | fluorescence was detected | higher fluorescence intensities than the nonamannoside | bound by CV-N | – | – |
| linear trimannoside [compound 3] | fluorescence was detected | higher fluorescence intensities than the nonamannoside | bound by CV-N | 3480 | – |
| branched trimannoside [compound 4] | no binding activity | – | – | – | – |
| O=C[C@H](O)[C@@H](O)[C@@H](O)[C@H](O)CO [compound 2, galactose] | no binding activity | – | – | – | FITC-labeled ConA fluorescence on immobilized saccharide spots (Concanavalin A (ConA) [1]): no fluorescence; fluorescence of beads in dilution series of labeled ConA (Concanavalin A (ConA) [2]; labeled ConA 0 to 400 μg mL^−1, very high lectin concentrations (FIG. 18)): no increase in fluorescence; labeled ConA binding to saccharide-bearing beads (rhodamine fluorescence) (Concanavalin A (ConA) [2]; labeled ConA 50 μg mL^−1, five minutes): no ConA was observed |
| nonamannoside [compound 6] | fluorescence was detected | – | bound by CV-N | 270 | CVN fluorescence signal in dilution series microarray at low printed concentrations (cyanovirin-N (CVN); printed carbohydrate 0.008 mM to 2 mM (FIG. 8)): showed discernable fluorescence at concentrations where the signals of the other structures were unobservable |
| CVN: HIV-inactivating 11 kDa protein from Nostoc ellipsosporum that binds high-mannose oligosaccharides of gp120 (protein, UniProt P81180 1-101, looked up) Cyanovirin-N: LGKFSQTCYNSAIQGSVLTSTCERTNGGYNTSSIDLNSVIENVDGSLKWQPSNFIETCRNTQLAGSSELAAECKTRAQQFVSTKINLDDHIANIDGTLKYE | – | – | – | – | inactivation of HIV strains (HIV strains): irreversibly inactivate a wide variety of HIV strains; toxicity to host cells (host cells): minimal toxicity to host cells |
